Several values for one entry are separate records, joined by “and”; a condition that tells them apart may be missing. Identical values can stand only once.
Key:
[1] = test system: rat liver homogenate; test: Indigoid-dye formation in rat liver homogenate; type: biochemical; conditions: indoxyl 1 mM, 5% DMF, 37° C., 24 h
Protocol: Finally, indigoid-dye formation was carried out in rat liver homogenate (Table 1, rightmost column).
Reactions in rat liver homogenate. An indoxyl compound in DMF (5 μL, 20 mM) was mixed with rat liver homogenate (95 μL). The reaction mixture was incubated at 37° C. for 24 h. After allowing to cool to room temperature, the reaction mixture was diluted with DMF (900 μL). The mixture was heated at 70° C. for 2 min and then centrifuged for 2 min. The supernatant was separated from any precipitate. This extraction procedure was repeated two or three times with DMF (100-500 μL). The combined supernatant (1500-1800 μL) was analyzed by absorption spectroscopy.

[2] = test system: tritosomes; test: Indigoid dye formation with tritosomes; type: biochemical
Protocol: The results from the glucosidase survey prompted several further experiments. First, a parallel set of studies was carried out with inclusion of several oxidants commonly employed in histochemical studies, given that the indigoid dye forming process requires the presence of an oxidant. […] The activity of the β-glucosidase was affected only slightly in the presence of a non-ionic detergent. To verify that the results observed in Table 1 were reliable, a 5-mg scale reaction of 33 was carried out to isolate indigo 43, which was obtained in 66% yield (Scheme 7). The 66% isolated yield corresponded well with the enzymatic yield of […] (Table 1, entry 15).
General methods. β-Glucosidase from almonds (lyophilized powder, >2 units/mg solid) and peroxidase from horseradish were purchased from Sigma-Aldrich. O-Glucosidase from Agrobacterium sp. (recombinant, suspension in 3.2 M (NH4)2SO4) was purchased from Megazyme; the concentration in solution was determined by absorption spectroscopy with E^0.1%32 2.20 cm^−1 at 280 nm.^37 Tritosomes were purchased from XenoTech. Rat liver homogenate was purchased from MP Biomedicals.

[3] = target: T1, β-glucosidase from Agrobacterium (Agrobacterium sp., UniProt P12614); test: Indigogenic reaction with β-glucosidase from Agrobacterium; type: biochemical
T1 construct: purchased Megazyme; host or cells: recombinant
T1 sequence (P12614 1-459): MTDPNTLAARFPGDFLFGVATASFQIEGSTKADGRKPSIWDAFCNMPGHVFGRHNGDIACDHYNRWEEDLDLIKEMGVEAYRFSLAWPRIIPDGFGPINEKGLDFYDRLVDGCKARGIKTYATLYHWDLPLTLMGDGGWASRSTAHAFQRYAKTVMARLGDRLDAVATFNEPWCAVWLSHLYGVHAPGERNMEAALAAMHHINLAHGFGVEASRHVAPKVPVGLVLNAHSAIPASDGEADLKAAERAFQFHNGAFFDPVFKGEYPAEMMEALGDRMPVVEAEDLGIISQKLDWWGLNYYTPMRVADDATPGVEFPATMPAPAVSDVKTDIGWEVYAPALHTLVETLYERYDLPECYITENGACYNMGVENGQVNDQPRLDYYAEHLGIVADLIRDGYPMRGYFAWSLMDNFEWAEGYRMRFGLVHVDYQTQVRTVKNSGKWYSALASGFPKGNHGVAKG
Protocol: Next, the β-glucosidase from Agrobacterium sp. was investigated as the trigger enzyme for indigoid dye formation. […]
Reactions with β-glucosidase from Agrobacterium. An indoxyl compound in DMF (2 μL, 5 mM) and β-glucosidase from Agrobacterium in 10 mM phosphate buffer [2 μL, 10 μM, pH 7.0, containing 50 mM NaCl and 0.6 M (NH4)2SO4] were mixed with 50 mM phosphate buffer (96 μL, pH 7.0). The reaction mixture was incubated at 37° C. for 2 h and then centrifuged for 3 min. Any precipitate was separated from the supernatant and dissolved in DMF (200 μL). The resulting solution was analyzed by absorption spectroscopy. The experiment was repeated three times.

[4] = test system: β-glucosidase from almonds; test: Indigogenic reaction with β-glucosidase from almonds; type: biochemical
Excerpt: With diverse glucosyl-indoxyl compounds in hand, we carried out a set of studies to examine indigoid-dye formation upon enzymatic cleavage of the glucosyl unit under physiological conditions. Altogether, 14 new (15, 16, 19-27, 30, 33, 41) and 2 known (1, 42) synthetic indoxyl-glucosides (lacking acetyl protecting groups) were examined in an effort to identify suitable combinations of substituents to support both bioconjugation and indigoid dye formation. In initial studies, β-glucosidase from almonds was employed to trigger indigoid dye formation (Table 1). Thus, a mixture of this enzyme (1 unit/mL) and an indoxyl β-glucoside (0.1 μmol, 1 mM) in acetate buffer (pH 5, containing 5% DMF) was incubated at 37° C. for 16-19 h. All indigoid dye was dissolved in each case for quantitative evaluation.
Reactions with β-glucosidase from almonds. An indoxyl compound in DMF (5 μL, 20 mM) and β-glucosidase from almonds in H2O (10 μL, 10 units/mL) were mixed with acetate buffer (85 μL, 50 mM, pH 5.0). The reaction mixture was incubated at 37° C. for 16-19 h and then allowed to cool to room temperature. DMF (300 μL for the reactions of 15, 16, 1, 19, 22, and 25; or 900 μL for the reactions of 42, 20, 21, 23, 24, 26, 27, 30, and 31, respectively) was added to dissolve any indigoid precipitate. The resulting solution was analyzed by absorption spectroscopy.

[5] = target: T2, β-glucosidase from Agrobacterium plus rat liver homogenate (Agrobacterium sp., UniProt P12614); test: Reaction of 33 with β-glucosidase from Agrobacterium in rat liver homogenate; type: biochemical; conditions: 33 100 μM, enzyme 200 nM, 2% DMF, 37° C., 4 h; ε = 2.6 × 10^4 M^-1 cm^-1
T2 construct: purchased Megazyme; host or cells: recombinant
T2 sequence (P12614 1-459): T1 sequence (P12614 1-459)
Protocol: Finally, indigoid-dye formation was carried out in rat liver homogenate (Table 1, rightmost column). Good yields were obtained in the case of 42 (65%, entry 4) and 27 (50%, entry 13). […] However, when β-glucosidase from Agrobacterium (200 nM) was present in rat liver homogenate, the indigoid dye was obtained in 81% yield (entry 15).
Reaction of 33 with β-glucosidase from Agrobacterium in rat liver homogenate. A DMF solution of 33 (2 μL, 5 mM) and β-glucosidase from Agrobacterium in 10 mM phosphate buffer [2 μL, 10 μM, pH 7.0, containing 50 mM NaCl and 0.6 M (NH4)2SO4] were mixed with rat liver homogenate (96 μL). The reaction mixture was incubated at 37° C. for 4 h and then centrifuged for 3 min. Any precipitate was separated from the supernatant and then suspended in DMF (200 μL). The suspension was centrifuged for 3 min. The supernatant was analyzed by absorption spectroscopy.

[6] = type: physicochemical; conditions: pH 7.4
Excerpt: Water solubility of the indoxyl glucoside is important for biological applications. […] Therefore, this compound is not suitable for bioconjugation. The synthesis of 34 relies on successive substitution of the dichloroanilinotriazine unit (derived from N,N-bis(2-methoxyethyl)aniline^31 and cyanuric chloride) with indoxyl-glucoside-PEG-OH and BCN-PEG-NH2 building blocks.
To improve the water solubility of the indoxyl species, a sulfobetaine unit^32,33 was incorporated as a water-solubilizing group. Sulfobetaines are stable zwitterions over a wide range of pH. Synthesis of an indoxyl bearing a sulfobetaine unit is illustrated in Scheme 6. Boc-piperazine (35) was treated with 1,3-propane sultone to afford 36 in 63% yield. Quaternization of the tertiary nitrogen atom in 36 with 3-bromopropanol gave Boc-protected sulfobetaine 37 in 69% yield. The Boc group was cleaved with trifluoroacetic acid (TFA) to afford piperazine-TFA salt 38 in 97% yield. The N-acetyl group of 32 was selectively deprotected with NaHCO3/MeOH in 84% yield. The product 39, piperazine-TFA salt 38, and BCN-amine 14 were assembled at a triazine ring via one-flask, successive substitution of cyanuric chloride to afford 40 in 51% yield. Cleavage of the acetyl groups of sulfobetaine 40 provided 41 in 98% yield.

[7] = indoxyl 100 μM, enzyme 200 nM, 0.05 M phosphate buffer pH 7.0, 2% DMF, 37° C., 2 h, n=3, ε = 1.27 × 10^4 M^-1 cm^-1
[8] = indoxyl 1 mM, enzyme 1 unit/mL, acetate buffer pH 5, 5% DMF, 37° C., 16-19 h, ε = 1.27 × 10^4 M^-1 cm^-1 (measured for 4)
[9] = as E4 but ε = 2.6 × 10^4 M^-1 cm^-1 measured for 43
[10] = as E1 but ε = 2.6 × 10^4 M^-1 cm^-1 measured for 43

Q: With “5-[(Benzylcarbamoyl)oxy)]-1H-indole-3-yl β-D-glucopyranoside [Indoxyl 16]” as the compound, how does the “Yield (%) rat liver homogenate” value ([1]; ε = 1.27 × 10^4 M^-1 cm^-1) read?
A: 9%

Q: What about the “Indigoid dye formation with tritosomes” value [2] of the same compound?
A: low yield of indigoid dye

Q: Which results are given for `COc1nc(Oc2ccc3[nH]cc(O[C@@H]4O[C@H](CO)[C@@H](O)[C@H](O)[C@H]4O)c3c2)nc(N2CCOCC2)n1` [Indoxyl 19, 5-[(4-Methoxy-6-morpholino-1,3,5-triazin-2-yl)oxy]-1H-indole-3-yl β-D-glucopyranoside]?
A: Yield (%) β-glucosidase from Agrobacterium [3, 7]: 46 ± 5%; Yield (%) β-glucosidase from almonds [4, 8]: <1%; Yield (%) rat liver homogenate ([1]; ε = 1.27 × 10^4 M^-1 cm^-1): <5%; Indigoid dye formation with tritosomes [2]: low yield of indigoid dye

Q: For `C#CCOc1ccc2[nH]cc(O[C@@H]3O[C@H](CO)[C@@H](O)[C@H](O)[C@H]3O)c2c1Br` [Indoxyl 26, 4-Bromo-5-propargyloxy-1H-indol-3-yl β-D-glucopyranoside], which “Yield (%) β-glucosidase from Agrobacterium” value [3, 7] is on record?
A: 79 ± 1%

Q: What about the “Yield (%) β-glucosidase from almonds” value [4, 8] of the same compound?
A: 56%

Q: What about the “Yield (%) rat liver homogenate” value ([1]; ε = 1.27 × 10^4 M^-1 cm^-1) of the same compound?
A: 17%

Q: Which “Yield (%) β-glucosidase from Agrobacterium” value [3, 9] does the source give for `C#CCOc1c(Br)cc2[nH]cc(O[C@@H]3O[C@H](CO)[C@@H](O)[C@H](O)[C@H]3O)c2c1Br` [Indoxyl 27, 4,6-Dibromo-5-propargyloxy-1H-indol-3-yl β-D-glucopyranoside] here?
A: 89 ± 2%

Q: And the “Yield (%) β-glucosidase from Agrobacterium” value [3, 7]?
A: 184 ± 3%

Q: And the “Yield (%) β-glucosidase from almonds” value [4, 10]?
A: 51%

Q: And the “Yield (%) β-glucosidase from almonds” value [4, 8]?
A: 105%

Q: What about the “Yield (%) rat liver homogenate” value ([1]; ε = 1.27 × 10^4 M^-1 cm^-1) of the same compound?
A: 50%

Q: With `OCCOCCOCCOc1c(Br)cc2[nH]cc(O[C@@H]3O[C@H](CO)[C@@H](O)[C@H](O)[C@H]3O)c2c1Br` [Indoxyl 33, 4,6-Dibromo-5-[1-hydroxy-3,6,9-trioxanon-9-yl]-1H-indol-3-yl β-D-glucopyranoside] as the compound, how does the “Yield of indigoid dye” value ([3]; 33 at 1.0 μM, enzyme 200 nM, pH 7.0, 2 h) read?
A: 41%

Q: What about the “Yield of indigoid dye” value ([3]; 33 at 1.0 μM, enzyme 200 nM, pH 7.0, 14 h) of the same compound?
A: 57%

Q: And the “Yield of indigoid dye” value ([3]; 33 at 1.8 μM, enzyme 200 nM, pH 7.0, 2 h)?
A: 42%

Q: And the “Yield of indigoid dye” value ([3]; 33 at 1.8 μM, enzyme 200 nM, pH 7.0, 14 h)?
A: 79%

Q: And the “Yield of indigoid dye” value ([3]; 33 at 3.2 μM, enzyme 200 nM, pH 7.0, 2 h)?
A: 51%

Q: And the “Yield of indigoid dye” value ([3]; 33 at 3.2 μM, enzyme 200 nM, pH 7.0, 14 h)?
A: 88%

Q: And the “Yield of indigoid dye” value ([3]; 33 at 5.6 μM, enzyme 200 nM, pH 7.0, 2 h)?
A: 62%

Q: And the “Yield of indigoid dye” value ([3]; 33 at 10 μM, enzyme 200 nM, pH 7.0, 2 h)?
A: 90%

Q: What about the “Yield of indigoid dye” value ([3]; 33 at 18 μM, enzyme 200 nM, pH 7.0, 2 h) of the same compound?
A: 85%

Q: What about the “Yield of indigoid dye” value ([3]; 33 at 32 μM, enzyme 200 nM, pH 7.0, 2 h) of the same compound?
A: 86%

Q: And the “Yield of indigoid dye” value ([3]; 33 at 56 μM, enzyme 200 nM, pH 7.0, 2 h)?
A: 89%

Q: And the “Yield (%) β-glucosidase from Agrobacterium” value [3, 9]?
A: 99% and 99 ± 5^g %

Q: And the “Yield of indigoid dye” value ([3]; pH 4, 33 100 μM, enzyme 200 nM, phosphate buffer, 37° C., 3 h)?
A: 6%

Q: What about the “Yield of indigoid dye” value ([3]; pH 5, 33 100 μM, enzyme 200 nM, phosphate buffer, 37° C., 3 h) of the same compound?
A: 38%

Q: What about the “Yield of indigoid dye” value ([3]; pH 6-8, 10 nM enzyme, 33 100 μM, 2 h) of the same compound?
A: 50-71%

Q: What about the “Yield of indigoid dye” value ([3]; pH 6-9, 33 100 μM, enzyme 200 nM, 3 h) of the same compound?
A: High to quantitative yields

Q: What about the “Yield (%) β-glucosidase from almonds” value [4, 10] of the same compound?
A: 52% and 52^g %

Q: What about the “Yield (%) rat liver homogenate” value ([1]; ε = 2.6 × 10^4 M^-1 cm^-1 measured for 43) of the same compound?
A: < 5%

Q: And the “Yield (%) β-glucosidase from Agrobacterium plus rat liver homogenate” value [5]?
A: 81% and 81 ± 5%

Q: Which results are given for `O=C(NCCOCCOCCNc1nc(OCCOCCOCCOc2c(Br)cc3[nH]cc(OC4O[C@H](CO)[C@@H](O)[C@H](O)[C@H]4O)c3c2Br)nc(N2CC[N+](CCCO)(CCCS(=O)(=O)[O-])CC2)n1)OC[C@@H]1[C@@H]2CCC#CCC[C@@H]21` (some centres unmarked) [Indoxyl 41]?
A: Yield (%) β-glucosidase from Agrobacterium [3, 9]: 106% and 106 ± 4^g %; Solubility [6]: > 400 µM
